How the values were obtained:
[1] = in vivo; cited from earlier work
[2] = in vivo; cited from earlier work; remark: listed apart in the source
onychomycosis = settings: nail lacquer, topical; cited from earlier work
Fischer 344 rats = tested on: Fischer 344 rats
Excerpt: Three-week-old Fischer 344 rats were obtained from Harlan Sprague Dawley, Inc. (Indianapolis, Ind.). NIH and University of Southern California IACUC guidelines for the care and use of laboratory animals were observed. […] The samples were retrieved after 3 and 6 weeks post-operation, and samples were processed for H&E and von Kossa staining, the latter to determine the extent of calcification.

NIH 3T3 cells = settings: mouse, 72 h
Procedure: NIH 3T3 cells were used in these studies. Cells were cultured in 24-well plates at a density of 5×10^6 cells/well in 10% FBS/DMEM overnight. […] Cells were incubated for 72 hours before cell counting and morphological studies.

bovine tendon = assay: Melting temperature measurement of fixed tissue (cross-linking), tendon; settings: 48 hours; PA 0.5% in PBS, GA 0.625% in PBS; n = 3; in °C
Procedure: (§1) The fixed tissues and fresh tissues were assayed for their melting temperature by heating tissue strips (1×2 cm^2, n=3). The melting temperature was recorded when tissues started to shrink.

human skin fibroblasts = assay: Cell proliferation and collagen synthesis of fibroblasts cultured on treated pericardium; assay type: cell-based; settings: p<0.005 for treated pericardium, FIG. 9
Procedure: Discs, 15 mm in diameter, were punched out from PA-treated bovine pericardium and inserted into the bottom of 24-well plates. After washing and equilibrating with PBS, human skin fibroblasts (8×10^4/well, third passage kindly provided by Dr. Warren Garner, University of Southern California) were placed on top of the tissues. After 48 hours of culture in 10% FBS/DMEM, the medium was changed to a labeling medium ([^3H]thymidine, 10 μCi/mL, 0.5% FBS/DMEM) followed by a 24 hour labeling period. Cell proliferation was assayed and collagen synthesis recorded as [^3H]OH-proline incorporation in a culture medium containing 25 μg/mL ascorbic acid, 25 μg/mL β-APN and 25 μCi/mL [^3H]proline in 0.5% FBS/DMEM after labeling for 48 hours.

bovine pericardium = assay: Melting temperature measurement of fixed tissue (cross-linking), pericardium; settings: 48 hours; PA 0.5% in PBS, GA 0.625% in PBS; n = 3; in °C
Procedure: as §1

collagenase = assay type: biochemical
Procedure: Tissue integrity was checked at the end of the incubation using a standard histological method (hematoxylin-eosin (H&E)). […] At predetermined intervals, 1.0 mL of solution was taken out and filtered through a 0.45-μM cellulose filter to separate solubilized collagen from insolubilized matrix. The amount of solubilized collagen was determined after total acid hydrolysis in 6N HCl for 24 hours at 100° C. by measuring hydroxyproline. The results are expressed as a percentage of the total collagen solubilized.

## CC1=C(/C=C/C(C)=C/C=C/C(C)=C/C(=O)O)C(C)(C)CCC1 [tretinoin, All-trans-retinoic acid]
[1]
  absorption: less than 2%

## CC(=O)Oc1ccccc1C(=O)O [Aspirin, aspirin]
[2]
  period of inhibition of blood clotting: 4 to 7 days

## Cc1cc(C2CCCCC2)n(O)c(=O)c1 [Ciclopirox]
onychomycosis
  cure rate: < 10%

## O=CCCCC=O [GA, glutaraldehyde]
Fischer 344 rats; periods ranging from 3 and 6 weeks
  degradation of fixed tissue after subcutaneous implantation (summary): no apparent degradation
Fischer 344 rats; rat, in vivo, sc
  calcification of implant (Von Kossa staining): dystrophic calcification
Fischer 344 rats; subcutaneous
  implant degradation, six weeks postoperatively: still intact
  implant integrity, three weeks postoperatively: retained their integrity
Fischer 344 rats; subcutaneous, treated pericardium, H&E
  tissue reaction to implant, one week postoperatively: lesser inflammatory reaction
NIH 3T3 cells
  concentration above which cells could not survive: greater than 0.6 μg/mL
  concentration at which cytotoxicity was observed: ≤ 600 ng/mL
Bovine tendon
  Melting temperature, tendon: 84 ± 1.0
Human skin fibroblasts
  collagen synthesis / deposition (hydroxyproline incorporation): inhibit collagen synthesis
Bovine pericardium
  Melting temperature, pericardium: 94 ± 1.5
collagenase
  collagen fibril structure after 24 hours of collagenase digestion (H&E): remained intact
